Residues, ends and D or L forms follow the SMILES beside them.
What was measured:
Format in all cases: in vivo
[1] = test system: rats with alloxan diabetes; assay: Tetrapeptide in different doses on the course of alloxan diabetes in rats (Example 4); conditions: for Glucose concentration in blood, initial level: before alloxan; for Glucose concentration in blood, after tetrapeptide administration, day 1 / Glucose concentration in blood, after tetrapeptide administration, day 4 / Glucose concentration in blood, after tetrapeptide administration, day 7 / Glucose concentration in blood, after tetrapeptide administration, day 14 / Glucose concentration in blood, after tetrapeptide administration, day 21: 7 days; for Decrease of glucose level: dose 10 μg
Method: The study was performed on 23 white mongrel male rats weighing on average […]. All the animals were subject to single intravenous administration of 1 ml of alloxan (“Spofa”) solution in dose of […].
Then the animals were divided at random into 3 groups. Control animals were intraperitoneally administered with 0.3 ml of 0.9% NaCl solution once a day. Rats of the second and third group were administered with tetrapeptide Lys-Glu-Asp-Trp-NH2 in dose of 1 μg (in 0.1 ml of 0.9% NaCl solution) and 10 μg (in 1.0 ml of 0.9% NaCl solution) per rat during 7 days.

[2] = test system: rats with alloxan diabetes; assay: Course of alloxan diabetes in rats, treatment variant (Example 2)
Method: After estimation of glucose concentration in the blood all the animals were divided at random into 2 groups. Then all the animals were exposed to single intravenous administration 1 ml of alloxan solution (“Spofa”) in dose 35 mg/kg. In 15 days control animals were administered once a day intraperitoneally with 0.3 ml 0.9% NaCl solution, rats of the main group were administered with LysGlu-Asp-Trp-NH2 in dose 3 μg (in 0.3 ml of 0.9% NaCl solution) per rat during 11 days.

[3] = test system: patients with diabetes mellitus; assay: Clinical application in patients with diabetes mellitus (Example 8)
Method: The investigation was carried out in 36 patients aged from 16 to 83 years (7 men, 29 women). In 23 patients there was diagnosed type 1 diabetes, in 13 patients—type 2 diabetes. The disease duration varied from 1 year to 30 years. 32 patients received insulin. The majority of the patients suffering diabetes mellitus entered the hospital decompensated. Blood glucose level in these patients on an empty stomach oscillated from […]; the glycosylated haemoglobin—from 7.8 to 12.7%. All the patients were prescribed a rigid diet. All the patients were stratified randomly into 2 groups, with respect to age, sex, duration and stage of the disease (Table 7). Alongside with standard method of treatment 16 patients were prescribed Lys-Glu-Asp-Trp-NH2 tetrapeptide in dose of 10 μg (in 1 ml of 0.9% NaCl solution) intramuscularly once a day for 10 days. 4 patients suffering type 2 diabetes mellitus were prescribed together with standard treatment course Lys-Glu-Asp-Trp-NH2 tetrapeptide in dose of 100 μg (1 tablet) twice a day before meals during 10 days. Patients of the control group were administered with 1 ml of 0.9% of NaCl solution as a placebo following the same scheme.

[4] = test system: rats with alloxan diabetes; assay: Insulin effect on blood glucose level in alloxan diabetes rats after tetrapeptide (Example 7)
Method: The study was conducted on 13 male rats, enrolled in the previous trial (treatment variant—28 days after completion of Lys-Glu-Asp-Trp-NH2 tetrapeptide administration). 8 healthy rats of the similar body weight constituted a separate group. All the animals were administered intravenously with insulin (0.3 units), and glucose concentration in their blood was estimated hereafter.

[5] = test system: rats with alloxan diabetes; assay: Insulin level in blood of rats with alloxan diabetes (Example 5)
Method: The experiment was held on 18 white mongrel male rats weighing on average 375±35 g. After the estimation of the blood glucose level all the animals were divided at random into 2 groups. Then all the animals were subjected to single intravenous injection with 1 ml of alloxan solution (“Spofa”) in dose of 35 mg/kg. 15 days later control animals were daily intraperitonealy administered with 0.3 ml of 0.9% NaCl solution, rats of the main group—with tetrapeptide Lys-Glu-Asp-Trp-NH2 in dose of 3 μg (in 0.3 ml of 0.9% NaCl) per rat during 11 days.

[6] = test system: rats with alloxan diabetes; assay: Glucose tolerance test (sugar curve) in alloxan diabetes rats (Example 6); conditions: 44th day after course completion
Method: The study was conducted on 13 male rats, enrolled in the previous tests (treatment variants—44 days after completion of tetrapeptide Lys-Glu-Asp-Trp-NH2 administration). 7 healthy rats with the same body weight constituted a separate group. All the animals were administered intravenously with 1 ml of 2% glucose solution, after that glucose concentration in their blood was estimated.

[7] = test system: rats with alloxan diabetes; assay: Course of alloxan diabetes in rats, prophylaxis and treatment variant (Example 3)
Method: The experiment was carried out on 15 white mongrel male rats with the average body weight 375±35 g. The animals were divided randomly into 2 groups. Control animals were administered once a day intravenously with 0.3 ml of 0.9% NaCl solution, while the main group animals were administered with LysGlu-Asp-Trp-NH2 tetrapeptide in dose of 3 μg (in 0.3 ml of 0.9% NaCl solution) per rat during 7 days. After that all the animals were subject to single intravenous administration of 1 ml of alloxan solution (“Spofa”) in dose 35 mg/kg. Lys-Glu-Asp-Trp-NH2 tetrapeptide had been administered during 3 days following alloxan administration. After that […] were subject to the second Lys-Glu-Asp-Trp-NH2 tetrapeptide course from 18 day till day 28 (total 11 days) in the same dose.

[8] = 3 μg per rat i.p. daily, 11 days
[9] = before alloxan and before treatment
[10] = 16 insulin-treated patients, 10 μg i.m. once a day, 10 days

NCCCC[C@H](N)C(=O)N[C@@H](CCC(=O)O)C(=O)N[C@@H](CC(=O)O)C(=O)N[C@@H](Cc1c[nH]c2ccccc12)C(N)=O [Tetrapeptide Lys-Glu-Asp-Trp-NH2, lysyl-glutamyl-aspartyl-tryptophane amid] (H-KEDW-NH2)
Glucose concentration in blood, after alloxan administration, day 7 ([1]; 1 mkg group): 245.6 ± 12.3 mg %
Glucose concentration in blood, after alloxan administration, day 14 ([1]; 1 mkg group): 261.7 ± 12.3 mg %
Glucose concentration in blood, initial level ([1]; 1 mkg group): 80.6 ± 2.8 mg %
Glucose concentration in blood, after tetrapeptide administration, day 1 ([1]; 1 mkg per rat): 228.3 ± 10.7 mg %
Glucose concentration in blood, after tetrapeptide administration, day 4 ([1]; 1 mkg per rat): 244.4 ± 12.2 mg %
Glucose concentration in blood, after tetrapeptide administration, day 7 ([1]; 1 mkg per rat): 269.4 ± 8.6 mg %
Glucose concentration in blood, after tetrapeptide administration, day 14 ([1]; 1 mkg per rat): 268.8 ± 12.4 mg %
Glucose concentration in blood, after tetrapeptide administration, day 21 ([1]; 1 mkg per rat): 272.5 ± 9.9 mg %
Glucose concentration in blood, after alloxan administration, day 7 ([1]; 10 mkg group): 247.2 ± 14.0 mg %
Glucose concentration in blood, after alloxan administration, day 14 ([1]; 10 mkg group): 252.2 ± 7.9 mg %
Glucose concentration in blood, initial level ([1]; 10 mkg group): 83.9 ± 3.4 mg %
Glucose concentration in blood, after tetrapeptide administration, day 1 ([1]; 10 mkg per rat): 193.3 ± 6.7 mg %
Glucose concentration in blood, after tetrapeptide administration, day 4 ([1]; 10 mkg per rat): 212.2 ± 7.3 mg %
Glucose concentration in blood, after tetrapeptide administration, day 7 ([1]; 10 mkg per rat): 205.6 ± 8.4 mg %
Glucose concentration in blood, after tetrapeptide administration, day 14 ([1]; 10 mkg per rat): 240.0 ± 7.9 mg %
Glucose concentration in blood, after tetrapeptide administration, day 21 ([1]; 10 mkg per rat): 248.3 ± 13.5 mg %
Decrease of glucose level ([1]; day 1): 30%
Decrease of glucose level ([1]; day 7): 26%
Glucose concentration in the blood, 8 days since the onset of tetrapeptide administration [2, 8]: 254.5 ± 16.2 mg %
Glucose concentration in the blood, upon completion of peptide administration, day 1 [2, 8]: 222.5 ± 10.3 mg %
Glucose concentration in the blood, upon completion of peptide administration, day 9 [2, 8]: 183.9 ± 10.5 mg %
Glucose concentration in the blood, upon completion of peptide administration, day 18 [2, 8]: 236.7 ± 10.3 mg %
Glucose concentration in the blood, upon completion of peptide administration, day 28 [2, 8]: 221.5 ± 11.2 mg %
Glucose concentration in the blood, upon completion of peptide administration, day 44 [2, 8]: 210.8 ± 9.3 mg %
Glucose concentration in the blood, upon completion of peptide administration, day 58 [2, 8]: 198.9 mg %
Glucose concentration in the blood, initial level [2, 9]: 81.1 ± 3.8 mg %
Glucose concentration in the blood, 15 days after alloxan administration ([2]; before start of tetrapeptide): 333.6 ± 12.4 mg %
Lethality decrease ([2]; vs control, alloxan diabetes animals): two-fold lethality decrease
Decrease of the blood glucose level throughout the whole study ([2]; vs control, range 30-47.7%): 38.4%
Reduction of the insulin daily dose, on average ([3]; 8 patients out of 16 treated with insulin): 8 units
Decreased insulin dose necessary to achieve compensation (number of patients) [3, 10]: 8
Increased insulin dose necessary to achieve compensation (number of patients) [3, 10]: 2
The same insulin dose necessary to achieve compensation (number of patients) [3, 10]: 6
Decrease of daily insulin dose as compared to the initial level ([3]; Patient K.): 26 units
Coagulogram indices ([3]; Patient K., at discharge): pronounced improvement in coagulogram indices
Blood glucose level on an empty stomach at discharge ([3]; Patient K., type 2, 10 μg i.m. 10 days, 18th day, 10 μmol/l on admission): 5.9 mM
Daily dose of insulin at discharge ([3]; Patient K., 82 units on admission): 56 units
Blood glucose level after completion of the treatment course ([3]; Patient L.): remained within the norm
Dose of diabeton ([3]; Patient L.): reduced two-fold
Glucose level on an empty stomach on the second day ([3]; Patient L., type 2, oral 100 μg twice a day with 2 diabeton tablets, 11 μmol/l on admission): 6 mM
Decrease of daily insulin dose as compared to the initial level ([3]; Patient M.): 8 units
Daily norm of insulin at discharge ([3]; Patient M., 40 units on admission): 32 units
Compensation in patients treated with oral anti-diabetic medicine ([3]; tetrapeptide in tablets): full compensation
Reduction of the dose of insulin ([3]; tetrapeptide in tablets, 100 μg twice a day, 10 days): 25 units
Reduction of dose of oral anti-diabetic preparations ([3]; tetrapeptide in tablets, patients on oral anti-diabetic medicine): reduced practically two-fold
Glucose concentration in blood, initial level ([4]; 28th day after course completion, before insulin): 221.5 ± 11.2 mg %
Glucose concentration in blood, 30 minutes after insulin administration ([4]; 28th day after course completion, insulin 0.3 units i.v.): 123.6 ± 8.3 mg %
Decrease of the glucose level after insulin administration as compared to the control group ([4]; alloxan diabetes animals): nearly two-fold decrease of the glucose level
Insulin content in blood, 8 days since the onset of tetrapeptide administration [5, 8]: 3.1 ± 1.1 mkIU/ml
Insulin content in blood, after the completion of tetrapeptide administration, day 1 [5, 8]: 3.6 ± 0.7 mkIU/ml
Insulin content in blood, after the completion of tetrapeptide administration, day 9 [5, 8]: 3.2 ± 0.5 mkIU/ml
Insulin content in blood, after the completion of tetrapeptide administration, day 18 [5, 8]: 4.3 ± 0.5 mkIU/ml
Insulin content in blood, after the completion of tetrapeptide administration, day 28 [5, 8]: 4.1 ± 0.6 mkIU/ml
Insulin content in blood, after the completion of tetrapeptide administration, day 44 [5, 8]: 3.9 ± 1.1 mkIU/ml
Insulin content in the blood relative to control group ([5]; 8 days of administration, higher than control): 3.9 fold
Amount of insulin in the blood at following estimations ([5]; after course completion, no insulin in controls): 13-18%
Insulin content in blood, initial level [5, 9]: 23.8 ± 2.8 mkIU/ml
Insulin content in blood, 15 days after alloxan administration ([5]; before start of tetrapeptide): 1.5 ± 0.4 mkIU/ml
Glucose tolerance test, 5 min after glucose administration [6]: 301.2 ± 10.5
Glucose tolerance test, 30 min after glucose administration [6]: 205.1 ± 11.8
Glucose tolerance test, 60 min after glucose administration [6]: 201.5 ± 13.2
Glucose tolerance test, 120 min after glucose administration [6]: 164.2 ± 12.8
Glucose tolerance test, initial level ([6]; before i.v. 1 ml of 2% glucose): 210.8 ± 9.3
Glucose concentration in blood, after alloxan administration, day 28 ([7]; 2nd course (from 18th till 28th day)): 77.3 ± 1.3 mg %
Blood glucose level after the second course ([7]; 28th, 33rd, 40th day): complete normalisation of the blood glucose level
Glucose concentration in blood, after alloxan administration, day 5 ([7]; after 1st course): 247.3 ± 17.2 mg %
Glucose concentration in blood, after alloxan administration, day 14 ([7]; after 1st course): 261.5 ± 39.5 mg %
Glucose concentration in blood, after alloxan administration, day 33 ([7]; after 2nd course): 90.7 ± 5.2 mg %
Glucose concentration in blood, after alloxan administration, day 40 ([7]; after 2nd course): 107.7 ± 6.4 mg %
Glucose concentration in blood, initial level ([7]; before treatment): 76.8 ± 1.1 mg %
Glucose concentration in blood, after alloxan administration, day 21 ([7]; during 2nd course (from 18th till 28th day)): 159.0 ± 32.6 mg %
Glucose concentration in blood, 7 days from the onset of tetrapeptide administration (1 course) ([7]; healthy rats before alloxan, 3 μg per rat daily): 94.0 ± 0.8 mg %
Effect on blood glucose level of healthy animals ([7]; healthy rats, 7 days, before alloxan): did not lead to the decrease of blood glucose level

Reference: patent US20070142298A1, “Tetrapeptide regulating blood glucose level in diabetes mellitus” (SANKT-PETERBURGSKAYA OBSCHESTVENNAYA ORGANIZATSIYA …, priority 2003, published 2007)
